Results published in patent publication US5288726A, “Tetrahydrothienopyridine derivatives, furo and pyrrolo analogs thereof and their preparation and uses for inhibiting blood platelet aggregation” (Ube Industries Limited, priority 1991, dated 1994).

Tested on: blood platelet aggregation
Test: Inhibition of blood platelet aggregation (ex vivo, ADP or collagen induced, rats dosed orally)
Format: in vivo, rat (SD strain, female)
Details: rat, oral, 4 hours before test, ADP or collagen (inducer not given), read-out: % Inhibition of blood platelet aggregation (Test Ex. 2)
Description: Inhibition of Blood Platelet Aggregation Female rats of the SD strain (supplied by Japan Charles River Inc.) were divided into groups of 4 each for the test. […] As a control, a 5% w/v aqueous solution of gum arabic was administered to a control group of rats, without any test drug. Blood platelet aggregation was tested according to the method of P. Lumley and P. P. A. Humphrey [J. Pharmacol. Methods 6, 153-166 (1981)]with a partial modification. […] The blood platelet aggregation rate was calculated from the following equation. […] The inhibitory effect was calculated as the percent inhibition of the treated groups as compared with the control groups.

SMILES	inhibition at 3 mg/kg	inhibition at 10 mg/kg	inhibition at 1 mg/kg	inhibition at 30 mg/kg (30 mg/kg (footnote *))
CCC(=O)C(c1ccccc1F)N1CCc2sccc2C1 (stereo not drawn) [Compound No. 19, 5-(2-Fluoro-α-propionylbenzyl)-4,5,6,7-tetrahydrothieno[3,2-c]pyridine]	29.3%	97.8%		
CC(=O)Oc1cc2c(s1)CCN(C(C(=O)C1CC1)c1ccccc1F)C2 (stereo not drawn) [Compound No. 190, 2-Acetoxy-5-(α-cyclopropylcarbonyl-2-fluorobenzyl)4,5,6,7-tetrahydrothieno[3,2-c]pyridine]			100%	
CCCC(=O)Oc1cc2c(s1)CCN(C(C(=O)C1CC1)c1ccccc1F)C2 (stereo not drawn) [Compound No. 194, 2-Butyryloxy-5-(α-cyclopropylcarbonyl-2-fluorobenzyl)4,5,6,7-tetrahydrothieno[3,2-c]pyridine]			100%	
COC(=O)C(c1ccccc1Cl)N1CCc2sccc2C1 (stereo not drawn) [Compound B, 5-(2-chloro-α-methoxycarbonylbenzyl) 4,5,6,7-tetrahydrothieno[3,2-c]pyridine, reference compound]	25.7%	98.8%		
O=C1C=C2CN(C(C(=O)C3CC3)c3ccccc3F)CCC2S1 (stereo not drawn) [Compound No. 235, 5-(α-Cyclopropylcarbonyl-2-fluorobenzyl)-2-oxo-2,4,5,6,7,7a-hexahydrothieno[3,2-c]pyridine]			98.8%	
O=C(C1CC1)C(c1ccccc1F)N1CCc2sccc2C1 (stereo not drawn) [Compound No. 59, 5-(α-Cyclopropylcarbonyl-2-fluorobenzyl)-4,5,6,7-tetrahydrothieno[3,2-c]pyridine]	98.1%		57.1%	
CC(C)(C)C(=O)Oc1cc2c(s1)CCN(C(C(=O)C1CC1)c1ccccc1F)C2 (stereo not drawn) [Compound No. 196, 5-(α-Cyclopropylcarbonyl-2-fluorobenzyl)-2-pivaloyloxy-4,5,6,7-tetrahydrothieno[3,2-c]pyridine]			97.6%	
O=C1C=C2CN(C(C(=O)C3CC3)c3ccccc3Cl)CCC2S1 (stereo not drawn) [Compound No. 233, 5-(2-Chloro-α-cyclopropylcarbonylbenzyl)-2-oxo-2,4,5,6,7,7a-hexahydrothieno[3,2-c]pyridine]		98.9%		
Clc1ccccc1CN1CCc2sccc2C1 [Compound A, 5 (2-chlorobenzyl)-4,5,6,7-tetrahydrothieno[3,2-c]pyridine, reference compound]				3.7%
O=C(C1CC1)C(c1ccccc1Cl)N1CCc2sccc2C1 (stereo not drawn) [Compound No. 60, 5-(2-Chloro-α-cyclopropylcarbonylbenzyl)-4,5,6,7-tetrahydrothieno[3,2-c]pyridine]	74.2%	100%		
